Entries after “also recorded” stand apart in the source; their conditions may differ.
Test system: gMSC (registered trademark) 1
Assay: Experimental cryopreservation of gMSC 1 (scaffold-free, three-dimensional mass of mesenchymal stem cells); cell count after thawing
Assay type: cell-based, human
Conditions: conclusion from gMSC 1 experiments, constituent added to 10% DMSO + basal medium + albumin
Protocol: Primary cultured human synovium-derived MSCs were obtained through the following steps (1) to (4) or were obtained by shredding a tissue into fragments, immersing them in a culture solution (STK1) in a culture vessel, and allowing outgrowth of cells from the tissue fragments.
(1) Synovial tissue was taken from a human.
(2) The obtained synovial tissue was washed with PBS, then the tissue was added to 10 ml of a 0.4% collagenase solution and blended, and allowed to react at 37° C. for 1 to 4 hours.
(3) The resultant product was subjected to filtering and then centrifugation to recover the synovial tissue.
(4) Primary culture was carried out in a STK (registered trademark) 1 in accordance with the instructions from the manufacturer of the STK 1.
The primary cultured cells obtained in the above manner were subcultured and proliferated in a STK (registered trademark) 2 by repeated subculture, in accordance with the instructions from the manufacturer of the STK 2.
MSCs in a sub-confluent state (5th generation: P5) were washed once with phosphate buffered saline (PBS, calcium-free and magnesium-free, PBS(−), Cell Science & Technology Institute, Inc.), then detached with use of a cell detachment agent TrypLE Select CTS (Thermo Fisher Scientific Inc.), were collected, and suspended in a washing medium (DMEM, Sigma). Then, the cells were transferred to a tube for centrifugation, and subjected to centrifugation at 1500 rpm at room temperature for 5 minutes. The separated single cells were further suspended in a washing medium, and the number of cells was counted using trypan blue staining. The cells were inoculated onto a 6-well plate (SUMITOMO BAKELITE CO., LTD.) containing a STK (registered trademark) 2 at a density of 40×10^4 cells/cm^2, and cultured (high-density culture) in an incubator at 37° C. and 5% CO2 for 7 days. Culture media were replaced three days after the inoculation and five days after the inoculation. […]

Compound	cryopreservative effect on scaffold-free, three-dimensional mass of mesenchymal stem cells
Tween 80 [reference compound]	not effective
CCCCC/C=C\C/C=C\CCCCCCCC(=O)O [linoleic acid, Linoleic Acid]	effective; also recorded: greater than the cryopreservative effect achieved by methyl-β-cyclodextrin
Phosphatidic acid sodium salt [PA]	effective

Source: patent publication US20200205399A1, “COMPOSITION FOR CRYOPRESERVATION, METHOD FOR PRODUCING CRYOPRESERVED MATERIAL, CELL PREPARATION, METHOD FOR PRODUCING CELL PREPARATION, AND KIT FOR CRYOPRESERVATION” (TWO CELLS Co., Ltd., priority 2017, published 2020)
